“And” between values parts separate entries of the source, which are not always exact repeats. Equal entries are not always repeated.
What was measured:
Pancreatic RNAse = target: T1, Pancreatic RNAse (Bos taurus, UniProt P61823); assay: Mechano-chemical effect of a specific ligand on cross-linked protein film (isometric tension); format: biochemical; conditions: ligand 5-10 times binding constant
T1 construct: purchased Sigma, St. Louis
T1 sequence (P61823 27-150): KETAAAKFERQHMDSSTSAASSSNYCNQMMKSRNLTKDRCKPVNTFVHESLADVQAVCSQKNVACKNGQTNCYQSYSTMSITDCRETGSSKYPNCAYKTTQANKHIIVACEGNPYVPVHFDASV

[1] = target: T2, Alkaline phosphatase (AP) from bovine intestinal mucosa (Bos taurus, UniProt P19111); assay: Effect of AgNO3 added to AP solution on AP activity; format: biochemical; conditions: 10^−4 M AgNO3 added to the AP solution
T2 construct: purchased Sigma Chemical Co., St. Louis, Mo; host or cells: bovine intestinal mucosa
T2 sequence (P19111 20-506): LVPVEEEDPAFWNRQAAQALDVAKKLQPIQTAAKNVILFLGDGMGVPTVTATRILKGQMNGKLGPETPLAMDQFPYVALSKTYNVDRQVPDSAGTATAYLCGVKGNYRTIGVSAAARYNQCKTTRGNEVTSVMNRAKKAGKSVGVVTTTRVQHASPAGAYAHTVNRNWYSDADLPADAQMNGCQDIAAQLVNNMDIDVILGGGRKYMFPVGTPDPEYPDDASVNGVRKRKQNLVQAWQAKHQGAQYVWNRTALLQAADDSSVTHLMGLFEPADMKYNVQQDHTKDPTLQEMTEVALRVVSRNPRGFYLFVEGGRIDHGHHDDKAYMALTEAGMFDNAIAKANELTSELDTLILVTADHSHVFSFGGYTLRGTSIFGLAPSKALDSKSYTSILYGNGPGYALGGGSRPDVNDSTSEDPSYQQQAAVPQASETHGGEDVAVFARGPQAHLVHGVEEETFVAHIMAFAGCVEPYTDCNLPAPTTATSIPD
Description: AP activity was measured immediately after spot extraction by adding 5-20 μL of the extract solution to 1.0 mL of the p-NPP solution in the TRIS/HCl buffer prepared from Sigma Fast tablets. Activity was measured in a room with a thermostat, with a temperature of 25±1° C. […] The specific activity was calculated using protein concentration measured gravimetrically, as described above in the mass measurement section.
It is believed, therefore, that the inactivation of AP at high voltages and currents occur outside the capillary as a result of reaction with the products of corona discharge or as the result of impact with the target electrode. Impact energy should grow with an increase of the potential, causing protein distraction on impact. This can explain the increase in AP inactivation with increasing voltage and current. The generation of corona products in electrospray deposition at I>200-300 nA was noticeable from a characteristic smell of ozone in the electrospray chamber. […] The capillary with the external electrode supports corona discharge more readily than the capillary with the internal electrode, which explains why AP is inactivated at lower currents and to a higher extent when electrospray deposited from the capillary with the external electrode.

Pancreatic Trypsin = assay: Mechano-chemical effect of a specific ligand on cross-linked protein film (isometric tension); format: biochemical; conditions: ligand concentration 5-10 times binding constant; for Effect in Dried Sample % (relative change in isometric tension in protein film induced by binding of specific ligand): conventional drying on glass
Avidin = Avidin (Gallus gallus, UniProt P02701); assay: as above; format: biochemical; conditions: ligand 5-10 times binding constant
Avidin, sequence (P02701 25-152, species assumed): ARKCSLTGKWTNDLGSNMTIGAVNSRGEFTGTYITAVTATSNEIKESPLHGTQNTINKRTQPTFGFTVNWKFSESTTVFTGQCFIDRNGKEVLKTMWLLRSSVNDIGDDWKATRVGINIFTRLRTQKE

α-Lactalburnin = assay: as above; format: biochemical
From the text: Using protein as an example of a biomolecule for electrospray deposition, the structure of the protein film and the functional properties of the protein molecules in the film is dependent on the path of flight of the electrospray, speed of the charged particles controlled by voltage, sign of the charges, humidity and temperature under which the protein molecules are electrosprayed, protein concentration in solution, and presence of stabilizers. At short distances, e.g., about 15 mm between capillary and substrate, or when the electrospray takes place in a humid atmosphere (relative humidity of more than 70-80%), charged microdroplets from the electrospray can reach the surface without decay or the production of dry ions, i.e., in the wet electrospray regime. The sample films obtained after evaporation of the deposited microdroplets on the substrate have much in common with the sample protein films obtained conventionally by applying a protein solution directly to the substrate and allowing the proteins to dry.

[2] = target: T3, 3-phosphoglycerate kinase (yeast) (Saccharomyces cerevisiae, UniProt P00560); assay: as above; format: biochemical; conditions: cross-linked 3-phosphoglycerate kinase (yeast) film, ligand 5-10 times binding constant
T3 sequence (P00560 1-416): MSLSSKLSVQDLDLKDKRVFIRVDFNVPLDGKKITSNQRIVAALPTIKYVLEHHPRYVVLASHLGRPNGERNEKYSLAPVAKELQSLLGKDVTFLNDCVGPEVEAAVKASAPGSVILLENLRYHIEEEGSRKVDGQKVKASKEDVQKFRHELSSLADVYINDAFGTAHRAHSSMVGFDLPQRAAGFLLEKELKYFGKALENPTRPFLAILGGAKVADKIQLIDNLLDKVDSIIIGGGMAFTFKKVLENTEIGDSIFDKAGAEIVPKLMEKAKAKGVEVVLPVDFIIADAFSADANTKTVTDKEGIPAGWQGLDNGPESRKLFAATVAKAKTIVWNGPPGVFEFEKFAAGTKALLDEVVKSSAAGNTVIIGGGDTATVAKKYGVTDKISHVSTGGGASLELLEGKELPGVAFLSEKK

Lysozyme (egg) = Lysozyme (egg) (Gallus gallus, UniProt P00698); assay: as above; format: biochemical; conditions: ligand 5-10 times binding constant
Lysozyme (egg), sequence (P00698 19-147): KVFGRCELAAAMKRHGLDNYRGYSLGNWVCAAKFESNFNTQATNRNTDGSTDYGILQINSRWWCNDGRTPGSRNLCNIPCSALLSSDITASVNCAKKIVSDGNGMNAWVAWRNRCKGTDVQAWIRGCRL

[3] = target: T4, Alcohol dehydrogenase (horse liver) (Equus caballus, UniProt P00327); assay: as above; format: biochemical; conditions: 0.4 mM NADH solution
T4 construct: purchased Sigma, St. Louis, Mo; host or cells: horse liver
T4 sequence (P00327 whole entry): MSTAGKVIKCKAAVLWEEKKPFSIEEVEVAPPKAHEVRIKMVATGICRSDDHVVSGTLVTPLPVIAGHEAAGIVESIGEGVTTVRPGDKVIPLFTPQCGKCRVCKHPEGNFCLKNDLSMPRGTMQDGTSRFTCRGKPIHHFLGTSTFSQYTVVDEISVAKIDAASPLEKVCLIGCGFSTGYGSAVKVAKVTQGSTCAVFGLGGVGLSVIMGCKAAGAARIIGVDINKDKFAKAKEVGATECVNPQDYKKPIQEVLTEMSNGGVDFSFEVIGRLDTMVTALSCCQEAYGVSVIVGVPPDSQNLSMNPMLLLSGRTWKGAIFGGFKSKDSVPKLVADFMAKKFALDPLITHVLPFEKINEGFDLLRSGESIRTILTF
Description: A film of horse liver alcohol dehydrogenase (LADH, Sigma, St. Louis, Mo., shown in FIG. 14B, was fabricated on an Al electrode covered with a sublayer consisting of 95% of the sodium salt of alginic acid (Sigma, St. Louis, Mo.) and 5 of Triton X-100 detergent. The LADH solution containing 5 mg/ml of protein and 1.5 mg/ml of sucrose was electrosprayed in dry air at +4.3 kV and 30-40 nA from a capillary placed about 15 mm over the substrate. The deposited film was cross-linked for 8 minutes with the vapor from 25% glutaraldehyde at 28° C. The samples were then tested for their ability to change isometric tension in response to 0.4 mM NADH solution.

[4] = system: goat antibody against human serum albumin; assay: microELISA of electrospray-deposited protein antigens on IMMOBILON-P filter; format: binding; conditions: primary antibody against human serum albumin 1:1000, AP-labeled secondary antibody 1:3000
Description: Different antigens (serum albumins from human and ox, ovalbumin and human hemoglobin) were electrospray deposited onto a wetted IMMOBILON-P membrane filter through a mask having multiple holes. After each deposition of a different protein antigen, the mask was shifted by 1.1 mm. After depositing all four protein antigens, the membrane filter was dried for 15 min. at 37° C. and blocked by soaking in a PBS solution (10 mM sodium phosphate buffer, pH 7.2, 0.9% NaCl) with 0.05% Tween-20, 1% chicken albumin (ovalbumin). […] The filter was then washed twice with PBS buffer for 10 seconds and reacted with a solution of anti-goat IgG antibodies labeled with alkaline phosphatase (Sigma, diluted 1:3000).

peroxidase = assay: Enzyme activity of electrospray-deposited peroxidase on nitrocellulose filter (DAB substrate); format: biochemical; conditions: deposited through polypropylene mask onto wetted nitrocellulose filter; DAB staining
From the text: The electrospray conditions used in this example were similar to those used in Example 1.
After electrospray, the pattern of deposited enzyme was not visible on the membrane filter surface. However, the patterns of the enzymes did become visible after soaking the peroxidase-deposited membrane filter in a solution of a standard peroxidase substrate (3,3′-diaminobenzidine, abbreviated DAB, and obtained from Sigma, St. Louis, Mo.), resulting in the formation of an insoluble brown colored product of the peroxidase reaction.

Concanavalin A = Concanavalin A (Canavalia ensiformis, UniProt P02866); conditions: cross-linked Concanavalin A film, ligand 5-10 times binding constant
Description: Protein films were prepared by electrospray for use in a mechanochemical method of assay. A 2 mg/ml concanavalin A (Sigma, St. Louis, Mo.) solution, containing 0.5 mg/ml of glycerol was electrosprayed through a rectangular single hole onto an Al electrode covered with a polymeric conducting sublayer of about 2-5 microns thick. The sublayer was prepared by drying a thin layer of water solution of a mixture of three compounds (polyethylene glycol-8000, poly(anetholesulfonic acid)—Na-salt and Triton X-100), 3%. each. The protein solution was electrosprayed from a capillary tip placed 20 mm over the substrate, with positive voltage of 4.0 kV at the capillary and a current of 33 nA. Deposition was performed in dry air for 10 minutes. After electrospray deposition, the sample was cross-linked for 15 minutes in a vapor of 25% glutaraldehyde (Aldrich Chemical Company, Milwaukee, Wis.) at 25° C. Upon applying a droplet of water on the substrate surface, the sample was floated off the substrate within 5 seconds.

## Nc1ccn([C@@H]2O[C@H](CO)[C@@H](OP(=O)(O)O)[C@H]2O)c(=O)n1 [3′-Cytidine monophosphate]
Pancreatic RNAse; conventional drying on glass
  Effect in Dried Sample % (relative change in isometric tension): +4.0%
Pancreatic RNAse; electrospray deposited
  Effect in Electrospray Deposit Sample % (relative change in isometric tension): −3.4%

## O=[N+]([O-])[O-].[Ag+] [AgNO3]
[1]
  inhibition of AP: does not result in any inhibition

## CCOC(=O)[C@H](CCCN=C(N)N)NC(=O)c1ccccc1 [BAEE]
Pancreatic Trypsin
  Effect in Dried Sample % (relative change in isometric tension in protein film induced by binding of specific ligand): +23%

## O=C(O)CCCC[C@@H]1SC[C@@H]2NC(=O)N[C@@H]21 [Biotin]
Avidin; conventional drying on glass
  Effect in Dried Sample % (relative change in isometric tension): −51%
Avidin; electrospray deposited
  Effect in Electrospray Deposit Sample % (relative change in isometric tension): −41% and −48%

## [Ca+2] [Ca^+2]
α-Lactalburnin; cross-linked α-Lactalburnin film, conventional drying on glass, ligand 5-10 times binding constant
  Effect in Dried Sample % (relative change in isometric tension): +240%
α-Lactalburnin; cross-linked α-Lactalburnin film, electrospray deposited, ligand 5-10 times binding constant
  Effect in Electrospray Deposit Sample % (relative change in isometric tension): +370%
α-Lactalburnin; α-lactalbumin films, wet electrospray deposition onto glass covered with conducting SnO2 layer
  difference in mechanochemical response to ligand between wet electrospray deposited and conventionally prepared films: No notable difference

## Nc1ncnc2c1ncn2[C@@H]1O[C@H](COP(=O)(O)OP(=O)([O-])OP(=O)([O-])O)[C@@H](O)[C@H]1O.[Mg+2] [Mg-ATP]
[2]; conventional drying on glass
  Effect in Dried Sample % (relative change in isometric tension): +13%
[2]; electrospray deposited
  Effect in Electrospray Deposit Sample % (relative change in isometric tension): +16%

## CC(=O)N[C@H]1C(O)O[C@H](CO)[C@@H](O)[C@@H]1O (stereo partly drawn) [N-acetyl-D-glucosamine]
Lysozyme (egg); conventional drying on glass
  Effect in Dried Sample % (relative change in isometric tension): −7.7% and −8.7%
Lysozyme (egg); electrospray deposited
  Effect in Electrospray Deposit Sample % (relative change in isometric tension): −6.3% and −3.5%

## NC(=O)C1=CN([C@@H]2O[C@H](COP(=O)(O)OP(=O)(O)OC[C@H]3O[C@@H](n4cnc5c(N)ncnc54)[C@H](O)[C@@H]3O)[C@@H](O)[C@H]2O)C=CC1 [NADH]
[3]; conventionally prepared LADH film
  ligand-induced increase in isometric tension: 6-7%
[3]; electrospray deposited LADH film, glutaraldehyde cross-linked
  ligand-induced increase in isometric tension: 6-7%

## Nc1ccc2cc3ccc(N)cc3nc2c1 [Proflavin]
Pancreatic Trypsin
  Effect in Dried Sample % (relative change in isometric tension in protein film induced by binding of specific ligand): +69%
Pancreatic Trypsin; electrospray deposited
  Effect in Electrospray Deposit Sample % (relative change in isometric tension in protein film induced by binding of specific ligand): +72; +72%

## bovine albumin: serum albumin from ox, antigen electrospray deposited onto filter
[4]
  spot intensity in microELISA: less intensively colored

## human hemoglobin: protein antigen electrospray deposited onto IMMOBILON-P filter
[4]
  spot intensity in microELISA: less intensively colored

## peroxidase: commercially available peroxidase (Sigma), electrospray deposited; horseradish peroxidase per b108
peroxidase
  enzymatic activity after electrospray deposition: retained

## α-D-mannopyranoside
Concanavalin A; conventional drying on glass
  Effect in Dried Sample % (relative change in isometric tension): +11%
Concanavalin A; electrospray deposited
  Effect in Electrospray Deposit Sample % (relative change in isometric tension): +4%

B1: ovalbumin: protein antigen electrospray deposited onto IMMOBILON-P filter (protein, UniProt P01012 2-386, looked up)
Ovalbumin: GSIGAASMEFCFDVFKELKVHHANENIFYCPIAIMSALAMVYLGAKDSTRTQINKVVRFDKLPGFGDSIEAQCGTSVNVHSSLRDILNQITKPNDVYSFSLASRLYAEERYPILPEYLQCVKELYRGGLEPINFQTAADQARELINSWVESQTNGIIRNVLQPSSVDSQTAMVLVNAIVFKGLWEKAFKDEDTQAMPFRVTEQESKPVQMMYQIGLFRVASMASEKMKILELPFASGTMSMLVLLPDEVSGLEQLESIINFEKLTEWTSSNVMEERKIKVYLPRMKMEEKYNLTSVLMAMGITDVFSSSANLSGISSAESLKISQAVHAAHAEINEAGREVVGSAEAGVDAASVSEEFRADHPFLFCIKHIATNAVLFFGRCVSP
[4]
  spot intensity in microELISA: not visible at all

— US6350609B1, “Electrospraying for mass fabrication of chips and libraries” (New York University, priority 1997, dated 2002)
